From patent US11629171B2, “Beta-hairpin peptidomimetics” (POLYPHOR AG, priority 2017, dated 2023) come the findings set out here.

≈ marks a conversion by molar mass, not a printed value. Where a SMILES comes first, the peptide text is derived from it. Bridges are numbered along the chain shown (N, C = ends). Roman numbers before positions name the chains, in order. [ ]: non-standard residue; d: D form. The star is where a group is joined. Tyrosinol = OC[C@H](Cc1ccc(O)cc1)N*; Tle = CC(C)(C)[C@H](N)C(=O)O; Hiv = CC(C)[C@H](O)C(=O)O; dDab = NCC[C@@H](N)C(=O)O; hSer = N[C@@H](CCO)C(=O)O; Dab = NCC[C@H](N)C(=O)O; Abu = CC[C@H](N)C(=O)O; Dap = NC[C@H](N)C(=O)O

The test system of series [1] is human red blood cells (hRBC). As to the kind of experiment: Hemolysis. As to conditions: red cells of human, 1 h, 200. It counts as cell-based. An outline of the steps: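 Percent hemolysis relative to 2% Triton X-100 (100%) and PBS/10% water (0%), from blank-corrected OD540 of diluted supernatants. Peptides tested at 200 μg/mL against 20% (v/v) washed human erythrocytes, 1 h, 37° C, shaking at 300 rpm.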

Series [2] concerns male ICR mice. As to the kind of experiment: Tolerability in a mouse model (Maximum Tolerated Dose assay). It is filed as in vivo. Conditions: groups of 3. The method, boiled down:
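Groups of 3 male ICR mice weighing 23±3 g received two subcutaneous doses, 12 h apart, of 30 or 40 mg/kg in saline adjusted to pH 6.5-7.6. Observation for 30 min after each dose covered autonomic effects and acute toxicity, including death.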

Series [3] concerns Enterobacter cloacae 848840. It counts as cell-based. Conditions: 848840. An outline of the steps: (§1)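 Two-fold peptide dilutions in polysorbate 80-containing (0.002% final) cation-adjusted Mueller-Hinton II broth were inoculated with about 10^6 CFU/mL. The MIC was taken as the lowest concentration, in μg/mL, preventing visible growth at 18-20 hours and 35° C.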
Series [4] relates to Acinetobacter baumannii 872842. It counts as cell-based. Conditions: 872842. The method, boiled down: as §1
The subject of series [5] is Escherichia coli 926415. It is filed as cell-based. As to conditions: 926415. An outline of the steps: as §1
The test system of series [6] is Klebsiella pneumoniae 968733. It counts as cell-based. As to conditions: 968733. The method, boiled down:
as §1

Series [7] has as its system Acinetobacter baumannii DSM 30008. It counts as cell-based. As to conditions: DSM 30008. An outline of the steps: as §1
The test system of series [8] is Escherichia coli ATCC 25922. It counts as cell-based. As to conditions: ATCC 25922. An outline of the steps: as §1
The test system of series [9] is Klebsiella pneumoniae SSI #3010. It counts as cell-based. As to conditions: SSI #3010. The method, boiled down: as §1
Series [10] relates to Pseudomonas aeruginosa ATCC 27853. It is filed as cell-based. As to conditions: ATCC 27853. The method, boiled down: as §1
The mark [11] stands for this setting: 2 × 40 mg/kg s.c. at a 12-hr interval.
[12] abbreviates: 2 × 30 mg/kg s.c. at a 12-hr interval.

The term MIC denotes the least concentration at which growth counts as inhibited.

As for `CC(=O)N[C@H](C(=O)N[C@H]1CCNC(=O)C[C@@H](C(=O)N[C@@H](CO)C(N)=O)NC(=O)[C@H](C(C)C)NC(=O)[C@H](CO)NC(=O)[C@H](Cc2c[nH]c3ccccc23)NC(=O)[C@H](CO)NC(=O)[C@@H](CCN)NC(=O)[C@H](CCC(=O)N[C@@H](CCN)C(=O)N[C@H](C(=O)N[C@@H](CN)C(=O)N[C@H]2CCNC(=O)[C@H]([C@@H](C)O)NC(=O)[C@H](CCN)NC(=O)[C@H](CCN)NC(=O)[C@H](CC(C)C)NC(=O)[C@@H](CC(C)C)NC(=O)[C@H](CCN)NC2=O)[C@@H](C)O)NC(=O)[C@H](CCN)NC(=O)[C@H](Cc2ccc(O)cc2)NC1=O)C(C)C` [Ex. 341] (I: Ac-V[Dab]Y[Dab]E[dDab]SWSVDS-NH2 / II: [Dab]T[Dap][Dab][Dab][dL]L[Dab][Dab]T; lactam I:2-I:11, II:4-II:C; amide I:5-II:N), in series [1], the “Hemolysis at 200 μg/mL” value is recorded as <1%. For the same molecule, the Mortality and dose in [2] (setting [11]) is given as 0/3 died at 2 × 40 mg/kg. The minimal inhibitory concentration (MIC) in [3] turned out to be 2 mg/L (≈ 0.836 µM); in [4], 0.25 mg/L (≈ 0.105 µM); in series [5], 0.5 mg/L (≈ 0.209 µM); in series [6], 1 mg/L (≈ 0.418 µM). The “Acinetobacter baumannii DSM 30008 MIC” value in [7] came to 0.0625 mg/L. In addition, the “Escherichia coli ATCC 25922 MIC” value in series [8] came to 0.0625 mg/L. Moreover, the “Klebsiella pneumoniae SSI #3010 MIC” value in series [9] was found to be 0.0625 mg/L. For the same molecule, the “Pseudomonas aeruginosa ATCC 27853 MIC” value in [10] was found to be 0.125 mg/L.

With `CC(C)C[C@@H]1NC(=O)[C@@H](CC(C)C)NC(=O)[C@H](CCN)NC(=O)[C@@H](NC(=O)[C@H](CN)NC(=O)[C@@H](NC(=O)[C@H](CCN)NC(=O)CC[C@@H]2NC(=O)[C@H](CCN)NC(=O)[C@H](Cc3ccc(O)cc3)NC(=O)[C@@H](NC(=O)[C@@H](O)C(C)C)CSSC[C@@H](C(=O)N[C@@H](CO)C(N)=O)NC(=O)[C@H](C(C)C)NC(=O)[C@H](CO)NC(=O)[C@H](Cc3c[nH]c4ccccc34)NC(=O)[C@H](CO)NC(=O)[C@@H](CCN)NC2=O)[C@@H](C)O)CCNC(=O)[C@H]([C@@H](C)O)NC(=O)[C@H](CCN)NC(=O)[C@H](CCN)NC1=O` [Ex. 115] (I: H-[Hiv]CY[Dab]E[dDab]SWSVCS-NH2 / II: [Dab]T[Dap][Dab][Dab][dL]L[Dab][Dab]T; disulfide I:2-I:11; amide I:5-II:N; lactam II:4-II:C), the “Hemolysis at 200 μg/mL” value in [1] is <1%. Further, in [2] (setting [12]), the Mortality and dose is on record as 0/3 died at 2 × 30 mg/kg. The MIC was 0.0625 mg/L (≈ 0.0265 µM) in series [3]; 0.125 mg/L (≈ 0.053 µM) in series [4]; 0.125 mg/L (≈ 0.053 µM) in series [5]; 0.25 mg/L (≈ 0.106 µM) in [6]; 0.0625 mg/L (≈ 0.0265 µM) in [7]; 0.0625 mg/L (≈ 0.0265 µM) in series [8]. For the same molecule, the minimum inhibitory concentration (MIC) was determined as 0.0625 mg/L (≈ 0.0265 µM) in series [9] and 0.125 mg/L (≈ 0.053 µM) in series [10].

With `CC[C@H](C)[C@@H]1NC(=O)[C@H](CO)NC(=O)[C@H](Cc2c[nH]c3ccccc23)NC(=O)[C@H](CO)NC(=O)[C@@H](CCN)NC(=O)[C@H](CCC(=O)N[C@@H](CCN)C(=O)N[C@H](C(=O)N[C@@H](CN)C(=O)N[C@H]2CCNC(=O)[C@H]([C@@H](C)O)NC(=O)[C@H](CCN)NC(=O)[C@H](CCN)NC(=O)[C@H]([C@@H](C)O)NC(=O)[C@@H](CC(C)C)NC(=O)[C@H](CCN)NC2=O)[C@@H](C)O)NC(=O)[C@H](CCN)NC(=O)[C@H](Cc2ccc(O)cc2)NC(=O)[C@@H](NC(=O)[C@@H](NC(C)=O)C(C)C)CSSC[C@@H](C(=O)N[C@@H](CO)C(=O)N[C@H](C)C(N)=O)NC1=O` [Ex. 380] (I: Ac-VCY[Dab]E[dDab]SWSICS[dA]-NH2 / II: [Dab]T[Dap][Dab][Dab][dL]T[Dab][Dab]T; disulfide I:2-I:11; amide I:5-II:N; lactam II:4-II:C), in series [1], the “Hemolysis at 200 μg/mL” value was <1%. Further, the Mortality and dose in series [2] (setting [11]) is recorded as 0/3 died at 2 × 40 mg/kg. Further, the MIC in series [3] was found to be 0.125 mg/L (≈ 0.0506 µM); in [4], 0.25 mg/L (≈ 0.101 µM); in [5], 0.125 mg/L (≈ 0.0506 µM); in [6] it was 0.5 mg/L (≈ 0.202 µM). In addition, the “Acinetobacter baumannii DSM 30008 MIC” value in [7] stood at 0.0625 mg/L. Besides, the “Escherichia coli ATCC 25922 MIC” value in [8] came to 0.03125 mg/L. In series [9], the “Klebsiella pneumoniae SSI #3010 MIC” value came to 0.0625 mg/L. For the same molecule, the “Pseudomonas aeruginosa ATCC 27853 MIC” value in series [10] worked out at 0.125 mg/L.

`CC[C@@H]1NC(=O)[C@@H](CC(C)C)NC(=O)[C@H](CCN)NC(=O)[C@@H](NC(=O)[C@H](CN)NC(=O)[C@@H](NC(=O)[C@H](CCN)NC(=O)CC[C@@H]2NC(=O)[C@H](CCN)NC(=O)[C@H](Cc3ccc(O)cc3)NC(=O)[C@@H](NC(=O)[C@@H](NC(C)=O)C(C)C)CSSC[C@@H](C(=O)N[C@@H](CO)C(N)=O)NC(=O)[C@H](C(C)C)NC(=O)[C@H](CO)NC(=O)[C@H](Cc3c[nH]c4ccccc34)NC(=O)[C@H](CO)NC(=O)[C@@H](CCN)NC2=O)[C@@H](C)O)CCNC(=O)[C@H]([C@@H](C)O)NC(=O)[C@H](CCN)NC(=O)[C@H](CCN)NC1=O` [Ex. 137] (I: Ac-VCY[Dab]E[dDab]SWSVCS-NH2 / II: [Dab]T[Dap][Dab][Dab][dL][Abu][Dab][Dab]T; disulfide I:2-I:11; amide I:5-II:N; lactam II:4-II:C): the “Hemolysis at 200 μg/mL” value in series [1] was found to be 1%. The Mortality and dose in series [2] (setting [12]) is on record as 0/3 died at 2 × 30 mg/kg. Moreover, the MIC in series [3] turned out to be 0.0625 mg/L (≈ 0.0264 µM); in series [4] it was 0.125 mg/L (≈ 0.0527 µM); in [5], 0.125 mg/L (≈ 0.0527 µM); in [6], 0.125 mg/L (≈ 0.0527 µM); in [7], 0.0625 mg/L (≈ 0.0264 µM); in [8] it was 0.03125 mg/L (≈ 0.0132 µM). For the same molecule, the MIC in [9] is 0.0625 mg/L (≈ 0.0264 µM); in series [10] it was 0.125 mg/L (≈ 0.0527 µM).

Turning to `CC(C)C[C@@H]1NC(=O)[C@@H](CC(C)C)NC(=O)[C@H](CCN)NC(=O)[C@@H](NC(=O)[C@H](CCN)NC(=O)[C@@H](NC(=O)[C@H](CCN)NC(=O)CC[C@@H]2NC(=O)[C@H](CCN)NC(=O)[C@H](C(C)C)NC(=O)[C@@H](NC(=O)[C@@H](O)C(C)C)CSSC[C@@H](C(=O)N[C@H](CO)Cc3ccc(O)cc3)NC(=O)[C@H](C(C)(C)C)NC(=O)[C@H](CO)NC(=O)[C@H](Cc3c[nH]c4ccccc34)NC(=O)[C@H](CCO)NC(=O)[C@@H](CCN)NC2=O)[C@@H](C)O)CCNC(=O)[C@H]([C@@H](C)O)NC(=O)[C@H](CCN)NC(=O)[C@H](CCN)NC1=O` [Ex. 92] (I: H-[Hiv]CV[Dab]E[dDab][hSer]WS[Tle]C-Tyrosinol / II: [Dab]T[Dab][Dab][Dab][dL]L[Dab][Dab]T; disulfide I:2-I:11; amide I:5-II:N; lactam II:4-II:C), in series [1], the “Hemolysis at 200 μg/mL” value is <1%. Moreover, in [2] (setting [12]), the Mortality and dose is 0/3 died at 2 × 30 mg/kg. Besides, the minimal inhibitory concentration (MIC) in [3] is 0.25 mg/L (≈ 0.104 µM); in series [4], 0.125 mg/L (≈ 0.0521 µM); in series [5] it was 0.0625 mg/L (≈ 0.0261 µM); in series [6] it was 0.125 mg/L (≈ 0.0521 µM); in [7], 0.125 mg/L (≈ 0.0521 µM); in series [8] it was 0.0625 mg/L (≈ 0.0261 µM). For the same molecule, the values for the MIC in [9] and in series [10] were 0.0625 mg/L (≈ 0.0261 µM) and 0.125 mg/L (≈ 0.0521 µM), respectively.
